# Patent US4920117A, “4,5,5a,6-tetrahydro-3H-isoxazolo(5,4,3-kl)acridines, pharmaceutical compositions and use” (Hoechst-Roussel Pharmaceuticals Inc., priority 1989, dated 1990)
# Columns and labels:
# acetylcholinesterase = acetylcholinesterase (Homo sapiens, UniProt P22303); assay: Cholinesterase inhibition assay (photometric method of Ellman et al.); assay type: biochemical; conditions: read-out: Cholinesterase Inhibition IC50 (molar conc.)
# [1] = test system: scopolamine induced memory deficit in mice; assay: Dark Avoidance Assay (reversal of scopolamine induced memory deficit); assay type: in vivo; conditions: retest after 24 hours
# Description: This utility can also be ascertained by determining the ability of these compounds to restore cholinergically deficient memory in the Dark Avoidance Assay. In this assay mice are tested for their ability to remember an unpleasant stimulus for a period of 24 hours. A mouse is placed in a chamber that contains a dark compartment; a strong incadescent light drives it to the dark compartment, where an electric shock is administered through metal plates on the floor. The animal is removed from the testing apparatus and tested again, 24 hours later, for the ability to remember the electric shock.
# If scopolamine, an anticholinergic that is known to cause memory impairment, is administered before an animal's initial exposure to the test chamber, the animal re-enters the dark compartment shortly after being placed in the test chamber 24 hours later. This effect of scopolamine is blocked by an active test compound, resulting in a greater interval before re-entry into the dark compartment.
# The results for an active compound are expressed as the percent of a group of animals in which the effect of scopolamine is blocked, as manifested by an increased interval between being placed in the test chamber and re-entering the dark compartment.
# [2] = test system: 2-phenyl-1,4-benzoquinone-induced writhing in mice; assay: 2-phenyl-1,4-benzoquinone-induced writhing test in mice (analgesia); assay type: in vivo
# Excerpt: The compounds of Formula I of the present invention are useful as analgesic agents due to their ability to alleviate pain in mammals. […] Exptl. Biol. Med., 95, 729 (1957)].
# acetylcholinesterase, sequence (P22303 32-614): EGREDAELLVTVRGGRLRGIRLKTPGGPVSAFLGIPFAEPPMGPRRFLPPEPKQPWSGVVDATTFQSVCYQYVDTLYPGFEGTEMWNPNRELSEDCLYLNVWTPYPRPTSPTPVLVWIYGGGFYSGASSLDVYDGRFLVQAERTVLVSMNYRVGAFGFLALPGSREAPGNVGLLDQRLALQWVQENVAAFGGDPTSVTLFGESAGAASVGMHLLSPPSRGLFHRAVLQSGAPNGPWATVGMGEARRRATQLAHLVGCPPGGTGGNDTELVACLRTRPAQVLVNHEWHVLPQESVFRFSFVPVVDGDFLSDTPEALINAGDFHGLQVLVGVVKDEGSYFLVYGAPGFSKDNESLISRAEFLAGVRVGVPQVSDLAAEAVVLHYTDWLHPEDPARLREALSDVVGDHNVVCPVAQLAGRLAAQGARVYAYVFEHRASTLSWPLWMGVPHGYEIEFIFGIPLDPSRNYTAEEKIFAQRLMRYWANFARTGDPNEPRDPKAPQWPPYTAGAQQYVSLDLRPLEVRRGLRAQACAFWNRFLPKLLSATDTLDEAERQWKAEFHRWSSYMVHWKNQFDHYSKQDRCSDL
smiles,measurement,setting,value
"c1ccc2c(c1)NC1CCCc3onc-2c31 (stereo not shown) [4,5,5a,6-Tetrahydro-3H-isoxazolo[5,4,3-kl]acridine]",IC50,acetylcholinesterase,13 µM
"c1ccc2c(c1)nc1c3c(onc32)CCC1 [4,5-Dihydro-3H-isoxazolo[5,4,3-kl]acridine]",IC50,acetylcholinesterase,3.9 µM
same,% of animals with scopolamine induced memory deficit reversal,[1]; 0.63 mg/kg body weight,20%
"C=CCN1c2ccccc2-c2noc3c2C1CCC3 (stereo not shown) [6-(2-Propenyl)-4,5,5a,6-tetrahydro-3H-isoxazolo[5,4,3-kl]acridine]",% of animals with scopolamine induced memory deficit reversal,[1]; 1.25 mg/kg body weight,27%
"CCNC(=O)N1c2ccccc2-c2noc3c2C1CCC3 (stereo not shown) [6-Ethylaminocarbonyl-4,5,5a,6-tetrahydro-3H-isoxazolo[5,4,3-kl]acridine]","Analgesic PQW % Inhibition of Writhing at 20 mg/kg., S.C.",[2],44%
"C#CCNC(=O)N1c2ccccc2-c2noc3c2C1CCC3 (stereo not shown) [N-(2-Propynyl)-4,5,5a,6-tetrahydro-3H-isoxazolo-[5,4,3-kl]acridine-6-carboxamide]","Analgesic PQW % Inhibition of Writhing at 20 mg/kg., S.C.",[2],29%
"O=C(NCCN1CCOCC1)N1c2ccccc2-c2noc3c2C1CCC3 (stereo not shown) [N-[2-(4-Morpholinyl)ethyl]-4,5,5a,6-tetrahydro-3H-isoxazolo[5,4,3-kl]acridine-6-carboxamide]","Analgesic PQW % Inhibition of Writhing at 20 mg/kg., S.C.",[2],52%
"O=C(NCC#CCN1CCCC1)N1c2ccccc2-c2noc3c2C1CCC3 (stereo not shown) [N-[4-(1-Pyrrolidinyl)-2-butyn-1-yl]-4,5,5a,6-tetrahydro-3H-isoxazolo[5,4,3-kl]acridine-6-carboxamide]","Analgesic PQW % Inhibition of Writhing at 20 mg/kg., S.C.",[2],33%
"CNC(=O)Oc1ccc2c(c1)[C@]1(C)CCN(C)[C@@H]1N2C [Physostigmine, reference compound]",% of animals with scopolamine induced memory deficit reversal,"[1]; 0.31 mg/kg body weight, reference",20%
"CCC(=O)O[C@](Cc1ccccc1)(c1ccccc1)[C@H](C)CN(C)C [Propoxyphene, reference compound]",Analgesic PQW % Inhibition of Writhing,"[2]; 3.9 mg/kg, s.c., reference compound",50%
